What all share (type): biochemical
Experiment [1] has as its target EphA2 (Homo sapiens, UniProt P29317). Description: Kinase inhibition activity test, isotope labeling: EphA2. The following applies: ATP 155 μM; read-out: EphA2 IC50 value (inhibitory activity value). How it is done:
(§1) The purpose of this experiment was to test the inhibitory activity of the compound of the invention for in vitro kinase with the isotope labeling method (the γ phosphate group on ATP was labeled). In this experiment, the in vitro activity inhibition of such kinases as FLT3, VEGFR2, FLT1, FLT4, RET, c-RAF, B-RAF, c-KIT, PDGFα, PDGFβ, FGFR2, FGFR1, EphA2, EphB2, SRC, ABL, ALK and Met was tested respectively. Staurosporine was reference molecule (or referred to as positive control). The kinase inhibition activity of the test compound was expressed by half-inhibitory concentration (IC50) or the kinase activity inhibition rate of the test compound at a concentration of 10 μM. The IC50 value could be obtained by calculating the kinase activity inhibition rate of the test compound at different concentrations.
(§2) 20 mM 3-(N-morpholinyl)propanesulfonic acid (MOPS); 1 mM ethylenediaminetetraacetic acid (EDTA), 0.01% Brij 35 (Brij-35), 5% glycerol, 0.1% mercaptoethanol, 1 mg/mL bovine serum albumin (BSA), 10 mM manganous dichloride solution (MnCl2), 0.1 mg/mL glutamic acid/tyrosine (4:1) polypeptide (poly(Glu, Tyr)4:1), 50 μM EAIYAAPFAKKK (substrate of FLT3), 0.33 mg/mL myelin basic protein (substrate of VEGFR2), 250 μM KKKSPGEYVNIEFG (substrate of FLT1(h)), 500 μM GGEEEEYFELVKKKK (substrate of FLT4(h)), 250 μM KKKSPGEYVNIEFG (substrate of RET), 0.66 mg/mL myelin basic protein (substrate of C-RAF), 250 μM GGMEDIYFEFMGGKKK (substrate of c-Kit), 250 μM GGMEDIYFEFMGGKKK (substrate of PDGFα), 250 μM KKKSPGEYVNIEFG (substrate of FGFR1), […] GGEEEEYFELVKKKK (substrate of SRC), 50 μM EAIYAAPFAKKK (substrate of ABL), 250 μM KKKSPGEYVNIEFG (substrate of ALK), 250 μM KKKSPGEYVNIEFG (substrate of Met(h)), 10 mM magnesium acetate and γ-^33 P-ATP solution, stop buffer (3% phosphate buffer), washing buffer (75 mM phosphate solution), methanol, Filtermat A membrane, FLT3, VEGFR2, FLT3, VEGFR2, FLT1, FLT4, RET, c-RAF, B-RAF, c-KIT, PDGFRα, PDGFRβ, FGFR2, FGFR1, EphA2, EphB2, SRC, ABL, ALK, Met and other kinases, and the test compounds.
(§3) Buffers (8 mM MOPS with pH value of 7.0, 0.2 mM EDTA and 10 mM MnCl2), (5-10 mU) kinases to be tested (FLT3, VEGFR2, FLT1, FLT4, RET, c-RAF, B-RAF, c-KIT, PDGFRα, PDGFRβ, FGFR2, FGFR1, EphA2, EphB2, SRC, ABL, ALK and Met), substrates of kinases to be tested (refer to experimental materials), 10 mM magnesium acetate and γ-^33 P-ATP solution, and test compounds at different concentrations were added to a reaction tube orderly. […] Reaction was terminated with 5 μL 3% phosphate buffer finally, and 10 μL reaction solution was titrated to the Filtermat A membrane; solution was washed for 3 times with 75 mM phosphate solution with each time lasting 5 minutes, and then washed once with methanol. […]

Experiment [2] addresses PDGFRβ (Homo sapiens, UniProt P09619). The experiment can be described thus: Kinase inhibition activity test, isotope labeling: PDGFRβ. The following applies: ATP 200 μM; read-out: PDGFRβ IC50 value (inhibitory activity value). How it is done: as §1, §2, §3
Experiment [3] concerns the target c-RAF (Homo sapiens, UniProt P04049). The experiment can be described thus: Kinase inhibition activity test, isotope labeling: c-RAF. The following applies: ATP 45 μM; read-out: c-RAF IC50 value (inhibitory activity value). As to the method: as §1, §2, §3
In experiment [4] the target is FLT4 (Homo sapiens, UniProt P35916). The experiment can be described thus: Kinase inhibition activity test, isotope labeling: FLT4. Particulars: ATP 200 μM; read-out: FLT4 IC50 value (inhibitory activity value). As to the method:
as §1, §2, §3

The target in experiment [5] is RET (Homo sapiens, UniProt P07949). The experiment can be described thus: Kinase inhibition activity test, isotope labeling: RET. Particulars: ATP 70 μM; read-out: RET IC50 value (inhibitory activity value). As to the method:
as §1, §2, §3

Experiment [6] concerns the target T1, EphB2 (Homo sapiens, UniProt P29323).
T1 sequence (P29323 19-1055): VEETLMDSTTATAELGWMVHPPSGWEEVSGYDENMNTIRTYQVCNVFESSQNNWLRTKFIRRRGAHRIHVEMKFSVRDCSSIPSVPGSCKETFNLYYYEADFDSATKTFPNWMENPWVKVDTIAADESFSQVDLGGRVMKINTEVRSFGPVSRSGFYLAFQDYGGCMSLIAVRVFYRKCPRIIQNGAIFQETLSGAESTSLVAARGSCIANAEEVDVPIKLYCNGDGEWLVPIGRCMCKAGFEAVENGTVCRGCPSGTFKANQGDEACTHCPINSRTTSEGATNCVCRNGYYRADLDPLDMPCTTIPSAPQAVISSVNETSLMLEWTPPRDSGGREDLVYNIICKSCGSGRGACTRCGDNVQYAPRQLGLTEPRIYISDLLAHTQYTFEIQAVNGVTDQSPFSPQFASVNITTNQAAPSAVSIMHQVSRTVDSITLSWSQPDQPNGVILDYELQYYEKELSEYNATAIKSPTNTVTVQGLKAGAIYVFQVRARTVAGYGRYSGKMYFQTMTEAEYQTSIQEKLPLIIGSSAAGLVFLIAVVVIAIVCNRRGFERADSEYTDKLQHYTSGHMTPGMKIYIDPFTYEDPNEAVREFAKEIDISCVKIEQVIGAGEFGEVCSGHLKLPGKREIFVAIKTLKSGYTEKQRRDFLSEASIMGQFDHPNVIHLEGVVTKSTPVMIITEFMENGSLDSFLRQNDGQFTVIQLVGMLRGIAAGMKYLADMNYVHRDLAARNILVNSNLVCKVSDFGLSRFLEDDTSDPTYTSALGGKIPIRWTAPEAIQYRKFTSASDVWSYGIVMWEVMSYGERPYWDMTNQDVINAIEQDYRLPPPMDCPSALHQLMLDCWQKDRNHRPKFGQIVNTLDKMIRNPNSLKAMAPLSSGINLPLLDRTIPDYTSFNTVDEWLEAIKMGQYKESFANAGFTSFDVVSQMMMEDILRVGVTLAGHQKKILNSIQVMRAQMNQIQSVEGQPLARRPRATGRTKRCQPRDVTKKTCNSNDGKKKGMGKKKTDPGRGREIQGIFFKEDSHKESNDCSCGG
Description: Kinase inhibition activity test, isotope labeling: EphB2. The following applies: ATP 10 μM; read-out: EphB2 IC50 value (inhibitory activity value). How it is done:
as §1, §2, §3

The term IC50 denotes the concentration at which inhibition is half-maximal.

EphA2, sequence (P29317 24-976): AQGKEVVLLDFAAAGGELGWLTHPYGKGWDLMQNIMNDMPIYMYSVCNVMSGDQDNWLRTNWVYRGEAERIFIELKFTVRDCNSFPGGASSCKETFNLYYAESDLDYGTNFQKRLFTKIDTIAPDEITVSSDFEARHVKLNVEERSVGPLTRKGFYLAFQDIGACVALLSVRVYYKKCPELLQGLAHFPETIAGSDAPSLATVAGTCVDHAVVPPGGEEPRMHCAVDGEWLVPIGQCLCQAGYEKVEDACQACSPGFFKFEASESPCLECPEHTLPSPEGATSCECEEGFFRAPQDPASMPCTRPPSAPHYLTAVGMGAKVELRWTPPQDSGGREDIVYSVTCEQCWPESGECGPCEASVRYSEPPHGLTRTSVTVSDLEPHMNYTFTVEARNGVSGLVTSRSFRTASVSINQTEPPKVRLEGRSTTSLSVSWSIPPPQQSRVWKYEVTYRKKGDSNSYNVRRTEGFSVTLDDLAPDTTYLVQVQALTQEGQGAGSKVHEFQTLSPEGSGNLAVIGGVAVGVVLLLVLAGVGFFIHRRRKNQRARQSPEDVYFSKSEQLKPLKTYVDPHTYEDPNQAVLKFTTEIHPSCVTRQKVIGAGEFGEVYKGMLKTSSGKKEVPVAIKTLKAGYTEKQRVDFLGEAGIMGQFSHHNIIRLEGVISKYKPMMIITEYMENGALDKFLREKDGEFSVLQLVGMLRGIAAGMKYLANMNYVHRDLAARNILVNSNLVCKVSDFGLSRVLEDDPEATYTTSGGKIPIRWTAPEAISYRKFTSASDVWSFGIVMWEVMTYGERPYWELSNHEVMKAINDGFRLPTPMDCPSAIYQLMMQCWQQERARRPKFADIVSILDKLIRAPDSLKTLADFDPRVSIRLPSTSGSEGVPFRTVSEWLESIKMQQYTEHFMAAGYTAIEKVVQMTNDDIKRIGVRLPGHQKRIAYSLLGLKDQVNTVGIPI
PDGFRβ, sequence (P09619 33-1106): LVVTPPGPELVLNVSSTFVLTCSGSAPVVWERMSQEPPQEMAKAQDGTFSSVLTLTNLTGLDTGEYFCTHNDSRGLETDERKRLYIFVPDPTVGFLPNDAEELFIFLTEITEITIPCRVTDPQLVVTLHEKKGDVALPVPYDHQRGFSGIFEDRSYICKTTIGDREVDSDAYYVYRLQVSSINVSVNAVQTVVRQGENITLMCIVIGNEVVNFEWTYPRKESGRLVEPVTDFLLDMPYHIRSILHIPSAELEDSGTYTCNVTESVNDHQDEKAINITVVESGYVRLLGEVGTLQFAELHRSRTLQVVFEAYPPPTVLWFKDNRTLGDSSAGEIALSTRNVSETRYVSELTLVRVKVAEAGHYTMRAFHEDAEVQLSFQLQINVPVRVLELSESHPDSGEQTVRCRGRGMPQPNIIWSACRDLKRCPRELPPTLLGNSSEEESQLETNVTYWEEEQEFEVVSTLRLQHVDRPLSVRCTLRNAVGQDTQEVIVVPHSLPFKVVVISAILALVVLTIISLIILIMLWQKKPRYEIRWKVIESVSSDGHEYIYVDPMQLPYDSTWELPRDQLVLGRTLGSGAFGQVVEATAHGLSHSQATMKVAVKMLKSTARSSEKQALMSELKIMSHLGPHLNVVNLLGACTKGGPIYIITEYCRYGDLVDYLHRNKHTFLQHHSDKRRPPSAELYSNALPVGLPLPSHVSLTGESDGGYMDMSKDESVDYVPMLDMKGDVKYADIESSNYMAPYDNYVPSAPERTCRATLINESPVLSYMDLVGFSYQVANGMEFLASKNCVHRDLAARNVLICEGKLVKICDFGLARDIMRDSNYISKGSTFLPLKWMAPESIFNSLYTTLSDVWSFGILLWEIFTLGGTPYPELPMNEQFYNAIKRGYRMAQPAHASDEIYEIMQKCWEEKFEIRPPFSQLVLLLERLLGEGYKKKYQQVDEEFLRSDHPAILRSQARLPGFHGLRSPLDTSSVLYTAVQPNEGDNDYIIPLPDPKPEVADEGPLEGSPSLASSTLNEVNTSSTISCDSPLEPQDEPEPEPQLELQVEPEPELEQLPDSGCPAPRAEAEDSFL
c-RAF, sequence (P04049 whole entry): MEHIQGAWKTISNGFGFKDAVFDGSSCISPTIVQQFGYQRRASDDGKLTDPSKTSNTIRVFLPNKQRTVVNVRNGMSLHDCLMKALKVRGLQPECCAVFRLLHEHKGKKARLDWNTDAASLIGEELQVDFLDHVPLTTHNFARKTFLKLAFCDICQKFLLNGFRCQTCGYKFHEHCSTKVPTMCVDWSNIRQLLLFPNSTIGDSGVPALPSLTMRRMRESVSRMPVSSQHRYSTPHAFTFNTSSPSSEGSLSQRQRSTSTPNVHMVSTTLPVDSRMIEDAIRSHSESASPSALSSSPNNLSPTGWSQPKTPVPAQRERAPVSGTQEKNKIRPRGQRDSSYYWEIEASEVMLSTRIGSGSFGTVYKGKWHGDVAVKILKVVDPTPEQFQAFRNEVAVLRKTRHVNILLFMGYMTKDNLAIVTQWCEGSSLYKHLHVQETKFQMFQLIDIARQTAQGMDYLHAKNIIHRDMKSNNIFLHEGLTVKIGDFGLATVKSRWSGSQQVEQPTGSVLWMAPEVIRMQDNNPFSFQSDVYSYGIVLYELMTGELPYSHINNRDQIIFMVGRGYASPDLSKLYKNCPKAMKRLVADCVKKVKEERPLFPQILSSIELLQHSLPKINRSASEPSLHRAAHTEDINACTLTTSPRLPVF
FLT4, sequence (P35916 25-1363): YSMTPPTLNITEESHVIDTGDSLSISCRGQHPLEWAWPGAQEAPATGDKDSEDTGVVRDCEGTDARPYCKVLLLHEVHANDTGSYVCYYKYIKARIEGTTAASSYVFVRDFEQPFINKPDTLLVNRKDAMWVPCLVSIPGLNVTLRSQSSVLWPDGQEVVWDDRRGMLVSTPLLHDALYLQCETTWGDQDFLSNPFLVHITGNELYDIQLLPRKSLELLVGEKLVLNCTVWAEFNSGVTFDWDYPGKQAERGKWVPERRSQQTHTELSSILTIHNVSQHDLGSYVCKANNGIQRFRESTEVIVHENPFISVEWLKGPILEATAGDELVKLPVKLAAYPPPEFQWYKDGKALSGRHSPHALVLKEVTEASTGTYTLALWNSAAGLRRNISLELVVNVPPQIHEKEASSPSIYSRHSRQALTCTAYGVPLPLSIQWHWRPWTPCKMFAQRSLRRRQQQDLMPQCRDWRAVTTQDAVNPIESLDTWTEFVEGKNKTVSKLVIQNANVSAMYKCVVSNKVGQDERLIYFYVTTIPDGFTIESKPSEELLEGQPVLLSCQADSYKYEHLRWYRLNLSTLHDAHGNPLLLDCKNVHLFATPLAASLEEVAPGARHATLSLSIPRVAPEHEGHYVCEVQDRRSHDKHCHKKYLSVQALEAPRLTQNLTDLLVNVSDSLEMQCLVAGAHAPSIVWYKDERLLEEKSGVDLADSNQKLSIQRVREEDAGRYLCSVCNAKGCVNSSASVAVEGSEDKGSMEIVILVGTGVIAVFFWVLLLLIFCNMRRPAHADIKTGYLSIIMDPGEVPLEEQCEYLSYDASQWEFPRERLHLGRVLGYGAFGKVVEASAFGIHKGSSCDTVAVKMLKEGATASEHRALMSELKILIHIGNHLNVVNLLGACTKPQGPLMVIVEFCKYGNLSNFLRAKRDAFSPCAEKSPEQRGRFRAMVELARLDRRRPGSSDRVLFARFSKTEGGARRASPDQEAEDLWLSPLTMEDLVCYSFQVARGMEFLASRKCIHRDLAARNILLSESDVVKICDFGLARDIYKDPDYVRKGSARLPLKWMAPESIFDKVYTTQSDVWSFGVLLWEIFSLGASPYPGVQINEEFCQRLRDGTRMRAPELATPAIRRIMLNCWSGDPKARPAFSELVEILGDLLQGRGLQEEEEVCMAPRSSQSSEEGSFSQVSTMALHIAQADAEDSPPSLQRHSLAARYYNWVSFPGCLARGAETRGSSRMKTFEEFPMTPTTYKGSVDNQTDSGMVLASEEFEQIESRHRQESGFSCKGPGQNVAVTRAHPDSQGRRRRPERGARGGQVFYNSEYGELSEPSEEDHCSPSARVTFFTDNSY
RET, sequence (P07949 29-1114): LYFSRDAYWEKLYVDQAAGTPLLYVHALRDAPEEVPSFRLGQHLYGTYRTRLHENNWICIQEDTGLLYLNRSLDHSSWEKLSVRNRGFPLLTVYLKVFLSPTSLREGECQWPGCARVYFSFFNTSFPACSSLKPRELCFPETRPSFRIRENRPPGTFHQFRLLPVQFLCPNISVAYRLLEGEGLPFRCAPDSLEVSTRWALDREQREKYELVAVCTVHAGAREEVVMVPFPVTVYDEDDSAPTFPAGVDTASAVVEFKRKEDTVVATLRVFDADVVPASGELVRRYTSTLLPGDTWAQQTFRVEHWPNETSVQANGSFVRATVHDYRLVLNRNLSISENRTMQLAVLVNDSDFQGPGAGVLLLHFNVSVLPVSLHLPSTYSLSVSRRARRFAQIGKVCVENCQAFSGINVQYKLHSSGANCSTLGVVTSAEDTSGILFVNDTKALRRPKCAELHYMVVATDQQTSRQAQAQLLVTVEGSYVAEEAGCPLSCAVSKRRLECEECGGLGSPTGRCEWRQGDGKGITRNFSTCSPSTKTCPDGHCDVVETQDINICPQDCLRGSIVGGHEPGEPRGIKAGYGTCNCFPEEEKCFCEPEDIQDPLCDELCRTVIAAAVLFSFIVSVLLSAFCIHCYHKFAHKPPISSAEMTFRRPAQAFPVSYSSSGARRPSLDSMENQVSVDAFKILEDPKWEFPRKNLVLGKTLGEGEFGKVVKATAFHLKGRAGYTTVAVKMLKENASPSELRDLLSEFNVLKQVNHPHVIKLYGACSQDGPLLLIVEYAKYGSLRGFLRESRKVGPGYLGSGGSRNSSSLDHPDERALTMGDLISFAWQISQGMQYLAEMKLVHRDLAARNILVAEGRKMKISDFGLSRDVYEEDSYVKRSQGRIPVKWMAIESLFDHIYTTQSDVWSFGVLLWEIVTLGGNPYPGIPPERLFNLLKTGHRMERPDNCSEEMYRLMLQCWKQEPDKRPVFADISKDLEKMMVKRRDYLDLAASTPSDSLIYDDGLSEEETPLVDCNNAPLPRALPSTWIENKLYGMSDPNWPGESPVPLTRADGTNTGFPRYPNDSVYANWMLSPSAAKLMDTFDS

As for `O=C(Nc1ccc(Oc2ncnc3[nH]ncc23)cc1)Nc1ccc(Cl)c(C(F)(F)F)c1` [4a-2], the 50% inhibitory concentration (IC50) in experiment [1] is less than 10000 nM; in experiment [2], 408 nM; in experiment [3], 72 nM; in experiment [4], less than 10000 nM; in experiment [5] it was less than 10000 nM; in experiment [6], less than 10000 nM.
Turning to `O=C(Nc1ccc(Oc2ncnc3[nH]ncc23)cc1)Nc1cccc(C(F)(F)F)c1` [4a-6], the half-maximal inhibitory concentration (IC50) in experiment [1] came to 56 nM; in experiment [2] it was 184 nM; in experiment [3], 82 nM; in experiment [4], 5 nM; in experiment [5], 4 nM; in experiment [6] it was 138 nM.
With `CC(C)(C)c1cc(NC(=O)Nc2ccc(Oc3ncnc4[nH]ncc34)cc2)on1` [4a-25], the IC50 is less than 10000 nM in experiment [1]; less than 10000 nM in experiment [2]; 53 nM in experiment [3]; less than 10000 nM in experiment [4]; less than 10000 nM in experiment [5]; less than 10000 nM in experiment [6].
For the compound `CC(C)(C)c1cc(NC(=O)Nc2ccc(Oc3ncnc4[nH]ncc34)c(F)c2)no1` [4a-31], the IC50 was less than 10000 nM in experiment [1]; less than 10000 nM in experiment [2]; 46 nM in experiment [3]; less than 10000 nM in experiment [4]; less than 10000 nM in experiment [5]; less than 10000 nM in experiment [6].

For the origin of these results see patent publication US9828375B2, “4-position substituted pyrazolopyrimidine derivative, and use thereof in drug preparation” (Guangxi Wuzhou Pharmaceuticals (Group) Co., Ltd., priority 2012, dated 2017).
